According to patent US9944645B2, “Imidazotriazines and imidazopyrimidines as kinase inhibitors” (Incyte Holdings Corporation, priority 2006, dated 2018):

The molecules below were run against c-Met kinase (h-Met; histidine-tagged c-Met catalytic domain fusion protein) (Homo sapiens (Human), UniProt P08581) (assay: In Vitro c-Met Kinase Enzyme Assays). Details: phosphorylation of poly Glu-Tyr, 5 μM ATP, 25 minutes at 30° C.
Type: biochemical
Method in brief: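 His-tagged c-Met catalytic domain reacted 25 min at 30° C, within the linear initial-rate range. Phosphotyrosine detected by ELISA with peroxidase-labeled anti-phospho-tyrosine antibody and TMB, OD read at 450 nm (540 nm correction); IC50 from curve fit.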

Chain of c-Met kinase (h-Met; histidine-tagged c-Met catalytic domain fusion protein) (P08581 1078-1345): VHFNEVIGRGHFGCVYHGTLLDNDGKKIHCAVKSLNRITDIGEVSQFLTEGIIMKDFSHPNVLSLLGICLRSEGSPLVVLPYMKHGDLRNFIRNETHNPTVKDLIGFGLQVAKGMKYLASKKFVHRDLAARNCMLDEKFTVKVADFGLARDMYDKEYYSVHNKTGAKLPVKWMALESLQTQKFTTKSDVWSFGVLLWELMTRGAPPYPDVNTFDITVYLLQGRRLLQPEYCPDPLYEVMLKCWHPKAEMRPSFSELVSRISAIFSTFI

IC50, < 500 nM:
CC(c1ccc2ncccc2c1)c1cnc2ncc(-c3ccc(C(=O)N[C@@H](C(=O)N(C)C)C(C)C)cc3)nn12 (stereo partly drawn) [Example 122, N-{(1R)-1-[(Dimethylamino)carbonyl]-2-methylpropyl}-4-[7-(1-quinolin-6-ylethyl)imidazo[1,2-b][1,2,4]triazin-2-yl]benzamide]
O=C(NC1CC1)c1ccc(-c2cnc3ncc(Cc4ccc5ncccc5c4)n3n2)cc1F [Example 123, N-Cyclopropyl-2-fluoro-4-[7-(quinolin-6-ylmethyl)imidazo[1,2-b][1,2,4]triazin-2-yl]benzamide]
COCC1(NC(=O)c2ccc(-c3cnc4ncc(Cc5ccc6ncccc6c5)n4n3)cc2F)CC1 [Example 124, 2-Fluoro-N-[1-(methoxymethyl)cyclopropyl]-4-[7-(quinolin-6-ylmethyl)imidazo[1,2-b][1,2,4]triazin-2-yl]benzamide]
O=C(NC1CCOCC1)c1ccc(-c2cnc3ncc(Cc4ccc5ncccc5c4)n3n2)cc1F [Example 125, 2-Fluoro-4-[7-(quinolin-6-ylmethyl)imidazo[1,2-b][1,2,4]triazin-2-yl]-N-(tetrahydro-2H-pyran-4-yl)benzamide]
O=C(c1ccc(-c2cnc3ncc(Cc4ccc5ncccc5c4)n3n2)cc1F)N1CC[C@@H](O)C1 [Example 126, (3R)-1-{2-Fluoro-4-[7-(quinolin-6-ylmethyl)imidazo[1,2-b][1,2,4]triazin-2-yl]benzoyl}pyrrolidin-3-ol]
NC(=O)c1ccc(-c2cnc3ncc(Cc4ccc5ncccc5c4)n3n2)cc1F [Example 127, 2-Fluoro-4-[7-(quinolin-6-ylmethyl)imidazo[1,2-b][1,2,4]triazin-2-yl]benzamide]
O=C(N[C@H]1CC[C@H](O)CC1)c1ccc(-c2cnc3ncc(Cc4ccc5ncccc5c4)n3n2)cc1F [Example 128, 2-Fluoro-N-(trans-4-hydroxycyclohexyl)-4-[7-(quinolin-6-ylmethyl)imidazo[1,2-b][1,2,4]triazin-2-yl]benzamide]
Fc1cc(-c2cnc3ncc(Cc4ccc5ncccc5c4)n3n2)ccc1-n1ccnc1 [Example 129, 6-{2-[3-Fluoro-4-(1H-imidazol-1-yl)phenyl]imidazo[1,2-b][1,2,4]triazin-7-ylmethyl}quinoline]
O=C1OCCN1c1ccc(-c2cnc3ncc(Cc4ccc5ncccc5c4)n3n2)cc1F [Example 130, 3-{2-Fluoro-4-[7-(quinolin-6-ylmethyl)imidazo[1,2-b][1,2,4]triazin-2-yl]phenyl}-1,3-oxazolidin-2-one]
CNC(=O)[C@@H](NC(=O)c1ccc(-c2cnc3ncc(Cc4ccc5ncccc5c4)n3n2)cc1F)C(C)(C)C [Example 131, N-(1S)-2,2-Dimethyl-1-[(methylamino)carbonyl]propyl-2-fluoro-4-[7-(quinolin-6-ylmethyl)imidazo[1,2-b][1,2,4]triazin-2-yl]benzamide]
CN(C)C(=O)[C@@H](NC(=O)c1ccc(-c2cnc3ncc(Cc4ccc5ncccc5c4)n3n2)cc1F)C(C)(C)C [Example 132, N-(1S)-1-[(Dimethylamino)carbonyl]-2,2-dimethylpropyl-2-fluoro-4-[7-(quinolin-6-ylmethyl)imidazo[1,2-b][1,2,4]triazin-2-yl]benzamide]
CC(C)(C)[C@H](NC(=O)c1ccc(-c2cnc3ncc(Cc4ccc5ncccc5c4)n3n2)cc1F)C(=O)N1CCC1 [Example 133, N-[(1S)-1-(Azetidin-1-ylcarbonyl)-2,2-dimethylpropyl]-2-fluoro-4-[7-(quinolin-6-ylmethyl)imidazo[1,2-b][1,2,4]triazin-2-yl]benzamide]
CC(C)C[C@H](NC(=O)c1ccc(-c2cnc3ncc(Cc4ccc5ncccc5c4)n3n2)cc1F)C(=O)N(C)C [Example 134, N-{(1S)-1-[(Dimethylamino)carbonyl]-3-methylbutyl}-2-fluoro-4-[7-(quinolin-6-ylmethyl)imidazo[1,2-b][1,2,4]triazin-2-yl]benzamide]
CNC(=O)[C@@H](CC(C)C)NC(=O)c1ccc(-c2cnc3ncc(Cc4ccc5ncccc5c4)n3n2)cc1F [Example 135, 2-Fluoro-N-{(1R)-3-methyl-1-[(methylamino)carbonyl]butyl}-4-[7-(quinolin-6-ylmethyl)imidazo[1,2-b][1,2,4]triazin-2-yl]benzamide]
CC(C)C[C@@H](NC(=O)c1ccc(-c2cnc3ncc(Cc4ccc5ncccc5c4)n3n2)cc1F)C(=O)N(C)C [Example 136, N-{(1R)-1-[(Dimethylamino)carbonyl]-3-methylbutyl}-2-fluoro-4-[7-(quinolin-6-ylmethyl)imidazo[1,2-b][1,2,4]triazin-2-yl]benzamide]
CC(C)C[C@@H](NC(=O)c1ccc(-c2cnc3ncc(Cc4ccc5ncccc5c4)n3n2)cc1F)C(=O)N1CCC1 [Example 137, N-[(1R)-1-(Azetidin-1-ylcarbonyl)-3-methylbutyl]-2-fluoro-4-[7-(quinolin-6-ylmethyl)imidazo[1,2-b][1,2,4]triazin-2-yl]benzamide]
N#CCCn1cc(-c2cnc3ncc(Cc4ccc5ncccc5c4)n3n2)cn1 [Example 138, 3-{4-[7-(Quinolin-6-ylmethyl)imidazo[1,2-b][1,2,4]triazin-2-yl]-1H-pyrazol-1-yl}propanenitrile]
N#CCn1cc(-c2cnc3ncc(Cc4ccc5ncccc5c4)n3n2)cn1 [Example 139, 4-[7-(Quinolin-6-ylmethyl)imidazo[1,2-b][1,2,4]triazin-2-yl]-1H-pyrazol-1-ylacetonitrile]
NC(=O)Cn1cc(-c2cnc3ncc(Cc4ccc5ncccc5c4)n3n2)cn1 [Example 140, 2-{4-[7-(Quinolin-6-ylmethyl)imidazo[1,2-b][1,2,4]triazin-2-yl]-1H-pyrazol-1-yl}acetamide]
COC(=O)N1CCC(n2cc(-c3cnc4ncc(Cc5ccc6ncccc6c5)n4n3)cn2)CC1 [Example 141, Methyl 4-{4-[7-(quinolin-6-ylmethyl)imidazo[1,2-b][1,2,4]triazin-2-yl]-1H-pyrazol-1-yl}piperidine-1-carboxylate]
O=C(N[C@H]1CCC[C@@H]1O)c1ccc(-c2cnc3ncc(Cc4ccc5ncccc5c4)n3n2)cc1F [Example 142, 2-Fluoro-N-[(1S,2S)-2-hydroxycyclopentyl]-4-[7-(quinolin-6-ylmethyl)imidazo[1,2-b][1,2,4]triazin-2-yl]benzamide]
O=C(NCCO)c1ccc(-c2cnc3ncc(Cc4ccc5ncccc5c4)n3n2)cc1F [Example 143, 2-Fluoro-N-(2-hydroxyethyl)-4-[7-(quinolin-6-ylmethyl)imidazo[1,2-b][1,2,4]triazin-2-yl]benzamide]
COCC1(NC(=O)c2ccc(-c3cnc4ncc(Cc5ccc6ncccc6c5)n4n3)cc2F)CCC1 [Example 144, 2-Fluoro-N-[1-(methoxymethyl)cyclobutyl]-4-[7-(quinolin-6-ylmethyl)imidazo[1,2-b][1,2,4]triazin-2-yl]benzamide]
